Data from patent US11680050B2, “Crystalline forms of ozanimod and ozanimod hydrochloride, and processes for preparation thereof” (RECEPTOS LLC, priority 2016, dated 2023).
In brackets after ≈: the same amount, converted by molar mass.

Legend:
Type in all cases: physicochemical
[1] = Stability assessment in constant temperature and humidity chambers (HPLC purity, XRPD crystalline form); details: for 1 week purity % / 2 week purity % / 4 week purity %: HPLC; for 2 week purity %: 2 weeks; for Change of the crystalline form: XRPD; for Stability, overall conclusion of the storage test: after storage under all conditions tested for the form
Description: Three solid samples of Form CS1 were placed in constant temperature and humidity chambers at 25° C./60% RH, 40° C./75% RH and 60° C./75% RH for 4 weeks. XRPD was used to test the crystalline form at the end of week 4. HPLC was used to measure the chemical purity at the end of week 1, 2, and 4. The XRPD comparison result is shown in FIG. 31 (from top to bottom: XRPD pattern of Form CS1 before and after being stored under 25° C./60% RH, 40° C./75% RH and 60° C./75% RH for 4 weeks), and the results are shown in Table 20.
Four solid samples of Form CS2 were placed in constant temperature and humidity chambers at 25° C./60% RH, 40° C./75% RH and 60° C./75% RH for 4 weeks and 80° C. for 1 week. XRPD was used to test the crystalline form at the end of week 4. HPLC was used to measure the chemical purity at the end of week 1, 2, and 4. The XRPD comparison result is shown in FIG. 32 (from top to bottom: XRPD pattern of Form CS2 before and after being stored under 25° C./60% RH, 40° C./75% RH and 60° C./75% RH for 4 weeks and 80° C. for 1 week), and the results are shown in Table 21.
Three solid samples of Form CS3 were placed in constant temperature and humidity chambers at 25° C./60% RH, 40° C./75% RH and 60° C./75% RH for 4 weeks. XRPD was used to test the crystalline form at the end of week 4. HPLC was used to measure the chemical purity at the end of week 1, 2, and 4. The XRPD comparison pattern is shown in FIG. 33 (from top to bottom: XRPD pattern of Form CS3 before and after being stored under 25° C./60% RH, 40° C./75% RH and 60° C./75% RH for 4 weeks), and the results are shown in Table 22.
Three solid samples of Form CS5 were placed in constant temperature and humidity chambers at 25° C./60% RH, 40° C./75% RH and 60° C./75% RH for 2 weeks. XRPD was used to test the crystalline form at the […]. The XRPD comparison pattern is shown in FIG. 34 (from top to bottom: XRPD pattern of Form CS5 before and after being stored under 25° C./60% RH, 40° C./75% RH and 60° C./75% RH for 2 weeks), and the results are shown in Table 23.
Two samples of Form CS6 were placed in constant temperature and humidity chambers at 25° C./60% RH and 40° C./75% RH for 4 weeks. XRPD was used to test the crystalline form at the end of week 4. HPLC was used to measure the chemical purity at the end of week 1, 2, and 4.The XRPD comparison result is shown in FIG. 35 (from top to bottom: XRPD pattern of Form CS6 before and after being stored under 25° C./60% RH and 40° C./75% RH for 4 weeks), and the results are shown in Table 24.
Four samples of Form CS1 of ozanimod hydrochloride were placed in constant temperature and humidity chambers at 25° C./60% RH, 40° C./75% RH and 60° C./75% RH for 4 weeks and 80° C. for 1 week. XRPD was used to test the crystalline form at the end of week 4. HPLC was used to measure the chemical purity at the end of week 1, 2, and 4. The XRPD comparison pattern is shown in FIG. 36 (from top to bottom: XRPD pattern of ozanimod hydrochloride Form CS1 before and after being stored under 25° C./60% RH, 40° C./75% RH and 60° C./75% RH for 4 weeks and 80° C. for 1 week), and the results are shown in Table 25.

[2] = Solubility assessment of saturated solutions in SGF, FeSSIF and water, measured by HPLC
Description: Form CS1 and Form CS1 of ozanimod hydrochloride were suspended into SGF (Simulated gastric fluids) and FeSSIF (Fed state simulated intestinal fluids, pH=5.0) to obtain saturated solutions. After being equilibrated for 1 h, 4 h and 24 h, concentrations of the saturated solutions were measured by HPLC.
Form CS3 and Form CS5 were suspended into SGF (Simulated gastric fluids) and water, and Form CS2 was suspended into FeSSIF (Fed state simulated intestinal fluids) to obtain saturated solutions. After being equilibrated for 1 h, 4 h and 24 h, concentrations of the saturated solutions were measured by HPLC.

[3] = Particle size distribution test (laser particle size analyzer, wet process); details: for MV, average particle size calculated by volume: dispersion medium Isopar G; for D10 / D50 (median diameter) / D90: volume distribution, Isopar G
Description: The particle size distribution test in the present disclosure is acquired by the S3500 laser particle size analyzer of Microtrac. Microtrac S3500 is equipped with the SDC (Sample Delivery Controller). The test is carried out by wet process, and the dispersion medium is Isopar G The parameters are as follow:
Certain amount of samples of Form CS1, Form CS2, Form CS3, Form CS5, Form CS6 of ozanimod and Form CS1 of ozanimod hydrochloride were taken for particle size distribution test.

[4] = Hygroscopicity assessment by dynamic vapor sorption (DVS); details: for Hygroscopicity class according to the definition of hygroscopicity: Chinese Pharmacopoeia 2015, 25° C., 80% RH; for Weight gain under 80% RH: DVS, 25° C.
Description: Dynamic Vapor Sorption (DVS) is measured via an SMS (Surface Measurement Systems Ltd.) intrinsic DVS. Typical Parameters for DVS test are as follows:
Gas and flow rate: N2, 200 mL/min
RH range: 0% RH to 95% RH […]
Dynamic vapor sorption (DVS) was applied to test hygroscopicity of Form CS1 of ozanimod hydrochloride with about 10 mg of samples.
Description and definition of hygroscopicity (Chinese Pharmacopoeia 2015 edition appendix Drug hygroscopic test guidelines, test at 25° C.+/−1° C., 80% RH). • deliquescent: Sufficient water is absorbed to form a liquid; • very hygroscopic: Increase in mass is equal to or greater than 15 percent; • hygroscopic: Increase in mass is less than 15 percent and equal to or greater than 2 percent; • slightly hygroscopic: Increase in mass is less than 2 percent and equal to or greater than 0.2 percent. • non hygroscopic or almost non hygroscopic: Increase in mass is less than 0.2 percent.

[5] = Mechanical stability, manual grinding for 5 minutes in mortar, XRPD; details: ground manually for 5 minutes, XRPD before and after
Description: Solid samples of Form CS3, Form CS5, Form CS6 of ozanimod and Form CS1 of ozanimod hydrochloride were ground manually for 5 minutes in mortar.

Compound	1 week purity % ([1]; 25° C./60% RH, 1 week)	2 week purity % ([1]; 25° C./60% RH)	4 week purity % ([1]; 25° C./60% RH, 4 weeks)	Change of the crystalline form ([1]; 25° C./60% RH, 4 weeks)	1 week purity % ([1]; 40° C./75% RH, 1 week)	2 week purity % ([1]; 40° C./75% RH)	4 week purity % ([1]; 40° C./75% RH, 4 weeks)	Change of the crystalline form ([1]; 40° C./75% RH, 4 weeks)	1 week purity % ([1]; 60° C./75% RH, 1 week)	2 week purity % ([1]; 60° C./75% RH)	4 week purity % ([1]; 60° C./75% RH, 4 weeks)	Change of the crystalline form ([1]; 60° C./75% RH, 4 weeks)	Stability, overall conclusion of the storage test [1]	Solubility ([2]; FeSSIF (pH=5.0), 1 h)	MV, average particle size calculated by volume [3]	D10 [3]	D50 (median diameter) [3]	D90 [3]	Hygroscopicity class according to the definition of hygroscopicity [4]	Weight gain under 80% RH [4]	also measured
CC(C)Oc1ccc(-c2nc(-c3cccc4c3CC[C@@H]4NCCO)no2)cc1C#N [Form CS1, ozanimod]	99.12%	99.18%	98.97%	No change	99.16%	99.17%	98.92%	No change	99.26%	99.13%	98.71%	No change	good stability	4200 µg/mL (≈ 10.4 mM)	22.40 μm	3.15 μm	11.20 μm	48.90 μm	slightly hygroscopic (Increase in mass is less than 2 percent and equal to or greater than 0.2 percent)	0.36%	Solubility ([2]; FeSSIF (pH=5.0), 4 h): 7300 µg/mL (≈ 18 mM); Solubility ([2]; SGF, 1 h): 6400 µg/mL (≈ 15.8 mM); Solubility ([2]; SGF, 4 h): 6300 µg/mL (≈ 15.6 mM); Solubility ([2]; SGF, 24 h): 5900 µg/mL (≈ 14.6 mM); solubility at 24 h ([2]; fed state simulated intestinal fluid (FeSSIF), pH 5, fessif, thermodynamic from solid, FeSSIF (pH=5.0), 24 h): 7700 µg/mL (≈ 19 mM)
CC(C)Oc1ccc(-c2nc(-c3cccc4c3CC[C@@H]4NCCO)no2)cc1C#N [Form CS2, ozanimod]	99.85%	99.63%	99.62%	No change	99.84%	99.78%	99.55%	No change	99.91%	99.60%	99.63%	No change	good stability	2000 µg/mL (≈ 4.94 mM)	23.24 μm	5.78 μm	14.20 μm	42.35 μm	slightly hygroscopic (Increase in mass is less than 2 percent and equal to or greater than 0.2 percent)	0.25%	1 week purity % ([1]; 80° C., 1 week): 99.71%; Change of the crystalline form ([1]; 80° C., 1 week): No change
CC(C)Oc1ccc(-c2nc(-c3cccc4c3CC[C@@H]4NCCO)no2)cc1C#N [Form CS6, ozanimod]	98.44%	98.21%	98.27%	No change	98.47%	98.33%	97.97%	No change	–	–	–	–	good stability	–	68.91 μm	12.87 μm	46.47 μm	161.7 μm	–	1.68%	Form change under mechanical stress [5]: No form change
